The NIST ThermoML archive (doi:10.1021/je0602824)
Numbers after ± are expanded uncertainties.

Assay: xn = mol fraction of the nth substance listed
Details: 101 kPa, Liquid

CCn1cc[n+](C)c1.O=S(=O)([O-])C(F)(F)F [1-ethyl-3-methylimidazolium trifluoromethanesulfonate] + O
Details | mass density [kg/m3] | viscosity [mPa·s]
278.15 K, x2 = 0 | 1400.52 ± 14 | 96 ± 7
278.15 K, x2 = 0.2286 | – | 47 ± 3
278.15 K, x2 = 0.2295 | 1388.3 ± 9.3 | –
278.15 K, x2 = 0.431 | 1372.38 ± 6.5 | –
278.15 K, x2 = 0.4324 | – | 28 ± 2
278.15 K, x2 = 0.6157 | 1347.34 ± 4.5 | –
278.15 K, x2 = 0.6159 | – | 18 ± 2
278.15 K, x2 = 0.7825 | 1299.91 ± 3.1 | –
278.15 K, x2 = 0.783 | – | 10 ± 2
278.15 K, x2 = 0.8608 | 1254.76 ± 2.5 | –
278.15 K, x2 = 0.9352 | – | 5 ± 2
278.15 K, x2 = 0.9353 | 1171.9 ± 1.7 | –
278.15 K, x2 = 0.9712 | 1097.49 ± 1.2 | –
278.15 K, x2 = 0.9924 | 1030.35 ± 0.75 | –
288.15 K, x2 = 0 | 1392.04 ± 13 | 61 ± 4
288.15 K, x2 = 0.2286 | – | 32 ± 2
288.15 K, x2 = 0.2295 | 1379.81 ± 9.2 | –
288.15 K, x2 = 0.431 | 1363.87 ± 6.4 | –
288.15 K, x2 = 0.4324 | – | 20 ± 2
288.15 K, x2 = 0.6157 | 1338.87 ± 4.4 | –
288.15 K, x2 = 0.6159 | – | 13 ± 2
288.15 K, x2 = 0.7825 | 1291.74 ± 3 | –
288.15 K, x2 = 0.783 | – | 7 ± 2
288.15 K, x2 = 0.8608 | 1247.16 ± 2.4 | –
288.15 K, x2 = 0.9352 | – | 4
288.15 K, x2 = 0.9353 | 1165.97 ± 1.7 | –
288.15 K, x2 = 0.9712 | 1093.64 ± 1.2 | –
288.15 K, x2 = 0.9924 | 1028.64 ± 0.73 | –
298.15 K, x2 = 0 | 1383.6 ± 13 | 41 ± 2
298.15 K, x2 = 0.2286 | – | 23 ± 2
298.15 K, x2 = 0.2295 | 1371.36 ± 9 | –
298.15 K, x2 = 0.431 | 1355.39 ± 6.3 | –
298.15 K, x2 = 0.4324 | – | 15 ± 2
298.15 K, x2 = 0.6157 | 1330.37 ± 4.3 | –
298.15 K, x2 = 0.6159 | – | 10 ± 2
298.15 K, x2 = 0.7825 | 1283.47 ± 3 | –
298.15 K, x2 = 0.783 | – | 6 ± 2
298.15 K, x2 = 0.8608 | 1239.38 ± 2.4 | –
298.15 K, x2 = 0.9352 | – | 3
298.15 K, x2 = 0.9353 | 1159.65 ± 1.7 | –
298.15 K, x2 = 0.9712 | 1089.08 ± 1.1 | –
298.15 K, x2 = 0.9924 | 1025.88 ± 0.72 | –
308.15 K, x2 = 0 | 1375.22 ± 13 | 29 ± 2
308.15 K, x2 = 0.2286 | – | 17 ± 2
308.15 K, x2 = 0.2295 | 1362.95 ± 8.9 | –
308.15 K, x2 = 0.431 | 1346.93 ± 6.2 | –
308.15 K, x2 = 0.4324 | – | 12 ± 2
308.15 K, x2 = 0.6157 | 1321.86 ± 4.3 | –
308.15 K, x2 = 0.6159 | – | 8 ± 2
308.15 K, x2 = 0.7825 | 1275.1 ± 2.9 | –
308.15 K, x2 = 0.783 | – | 5 ± 2
308.15 K, x2 = 0.8608 | 1231.42 ± 2.3 | –
308.15 K, x2 = 0.9352 | – | 3
308.15 K, x2 = 0.9353 | 1152.94 ± 1.6 | –
308.15 K, x2 = 0.9712 | 1083.9 ± 1.1 | –
308.15 K, x2 = 0.9924 | 1022.24 ± 0.69 | –
318.15 K, x2 = 0 | 1366.9 ± 13 | 21 ± 2
318.15 K, x2 = 0.2286 | – | 13 ± 2
318.15 K, x2 = 0.2295 | 1354.59 ± 8.8 | –
318.15 K, x2 = 0.431 | 1338.49 ± 6.1 | –
318.15 K, x2 = 0.4324 | – | 10 ± 2
318.15 K, x2 = 0.6157 | 1313.33 ± 4.2 | –
318.15 K, x2 = 0.6159 | – | 7 ± 2
318.15 K, x2 = 0.7825 | 1266.62 ± 2.9 | –
318.15 K, x2 = 0.783 | – | 4
318.15 K, x2 = 0.8608 | 1223.27 ± 2.3 | –
318.15 K, x2 = 0.9352 | – | 3
318.15 K, x2 = 0.9353 | 1145.88 ± 1.6 | –
318.15 K, x2 = 0.9712 | 1078.18 ± 1.1 | –
318.15 K, x2 = 0.9924 | 1017.86 ± 0.67 | –
328.15 K, x2 = 0 | 1358.63 ± 13 | 16 ± 2
328.15 K, x2 = 0.2286 | – | 10 ± 2
328.15 K, x2 = 0.2295 | 1346.27 ± 8.7 | –
328.15 K, x2 = 0.431 | 1330.07 ± 6 | –
328.15 K, x2 = 0.4324 | – | 8 ± 2
328.15 K, x2 = 0.6157 | 1304.78 ± 4.1 | –
328.15 K, x2 = 0.6159 | – | 6 ± 2
328.15 K, x2 = 0.7825 | 1258.04 ± 2.8 | –
328.15 K, x2 = 0.783 | – | 4
328.15 K, x2 = 0.8608 | 1214.94 ± 2.2 | –
328.15 K, x2 = 0.9352 | – | 3
328.15 K, x2 = 0.9353 | 1138.49 ± 1.5 | –
328.15 K, x2 = 0.9712 | 1071.95 ± 1 | –
328.15 K, x2 = 0.9924 | 1012.83 ± 0.63 | –
338.15 K, x2 = 0 | 1350.43 ± 12 | 13 ± 2
338.15 K, x2 = 0.2286 | – | 9 ± 2
338.15 K, x2 = 0.2295 | 1338.01 ± 8.5 | –
338.15 K, x2 = 0.431 | 1321.68 ± 5.9 | –
338.15 K, x2 = 0.4324 | – | 7 ± 2
338.15 K, x2 = 0.6157 | 1296.19 ± 4 | –
338.15 K, x2 = 0.6159 | – | 5 ± 2
338.15 K, x2 = 0.7825 | 1249.35 ± 2.7 | –
338.15 K, x2 = 0.783 | – | 4
338.15 K, x2 = 0.8608 | 1206.43 ± 2.2 | –
338.15 K, x2 = 0.9352 | – | 2
338.15 K, x2 = 0.9353 | 1130.76 ± 1.5 | –
338.15 K, x2 = 0.9712 | 1065.25 ± 1 | –
338.15 K, x2 = 0.9924 | 1007.21 ± 0.6 | –
348.15 K, x2 = 0 | 1342.3 ± 12 | 11 ± 2
348.15 K, x2 = 0.2286 | – | 7 ± 2
348.15 K, x2 = 0.2295 | 1329.77 ± 8.4 | –
348.15 K, x2 = 0.431 | 1313.29 ± 5.8 | –
348.15 K, x2 = 0.4324 | – | 6 ± 2
348.15 K, x2 = 0.6157 | 1287.58 ± 4 | –
348.15 K, x2 = 0.6159 | – | 5 ± 2
348.15 K, x2 = 0.7825 | 1240.55 ± 2.7 | –
348.15 K, x2 = 0.783 | – | 3
348.15 K, x2 = 0.8608 | 1197.74 ± 2.1 | –
348.15 K, x2 = 0.9352 | – | 2
348.15 K, x2 = 0.9353 | 1122.73 ± 1.4 | –
348.15 K, x2 = 0.9712 | 1058.13 ± 0.95 | –
348.15 K, x2 = 0.9924 | 1001.05 ± 0.56 | –
